In patent US20070282011A1, “Biodegradable water soluble polymers” (MediVas, LLC, priority 2006, published 2007):

Legend:
in vitro = details: endothelial cells
Procedure: (§1) In vitro assays were conducted using endothelial cells and smooth muscle cells.
(§2) The cells were then fed again with fresh medium (Endothelial Growth Media, EGM-2 BulletKit, Cambrex) and increasing doses of the test substrates were introduced at the following concentrations: 0.1, 0.5, 1, 2, 8 and 40 ng/ml in triplicate. […] The percent cell viability was then determined at 24, 48 and 72 hours following exposure to the test substances, using a standard ATP assay (ViaLight Plus assay kit, Cambrex).

[1] = ionizable group of side chain R3 of natural amino acid residue; tabulated as a guide; cited from earlier work
endothelial cells = experiment: In vitro cell culture cytotoxicity, percent cell viability by ATP assay (ViaLight Plus); details: 0.1-40 ng/ml Taxol equivalent
Procedure: as §1, §2

`CC(=O)O[C@H]1C(=O)[C@@]2(C)[C@H]([C@H](OC(=O)c3ccccc3)[C@]3(O)C[C@H](OC(=O)[C@H](O)[C@@H](NC(=O)c4ccccc4)c4ccccc4)C(C)=C1C3(C)C)[C@]1(OC(C)=O)CO[C@@H]1C[C@@H]2O` [Taxol, 5β,20-Epoxy-1,2α,4,7β,10β,13α-hexahydroxytax-11-en-9-one 4,10-diacetate 2-benzoate 13-ester with (2R,3S)—N-benzoyl-3-phenylisoserine] showed a viability at 72 h, 0.1 ng/ml (in vitro) of 126%, a viability at 72 h, 0.5 ng/ml (in vitro) of 123% and a viability at 72 h, 1 ng/ml (in vitro) of 114%. For the same molecule, the viability at 72 h, 2 ng/ml (in vitro) was 90%, the viability at 72 h, 8 ng/ml (in vitro) was 38.6% and the viability at 72 h, 40 ng/ml (in vitro) was 15.5%.
In the case of `N[C@@H](Cc1ccc(O)cc1)C(=O)O` [Tyrosine], the pK [1] is given as 10.0.
In the case of `NCCCC[C@H](N)C(=O)O` [Lysine], the pK [1] is listed as 10.5.
For `N[C@@H](CCC(=O)O)C(=O)O` [Glutamic acid], the pK [1] is listed as 4.07.
For `CC(=O)O[C@H]1C(=O)[C@@]2(C)[C@H]([C@H](OC(=O)c3ccccc3)[C@]3(O)C[C@H](OC(=O)[C@H](OC(=O)CCC(=O)O)[C@@H](NC(=O)c4ccccc4)c4ccccc4)C(C)=C1C3(C)C)[C@]1(OC(C)=O)CO[C@@H]1C[C@@H]2O` [Taxol-SA, Taxol-2′-hemisuccinate], the “cytotoxicity to the cells (in words)” value (endothelial cells) was “does not appear to change the cytotoxicity”.
In the case of `N[C@@H](Cc1c[nH]cn1)C(=O)O` [Histidine], the pK [1] is given as 6.10.
